Consider one molecule from patent US20030143645A1, “Quinone reductase 2 and aldehyde dehydrogenase as therapeutic targets” (priority 2001, published 2003).

The target of this assay is T1, ALDH1 (Homo sapiens, UniProt P00352).
T1 construct: Purification of native ALDH1, QR2 and QR1; RBC extract was prepared as described above and applied to PQ-Sepharose; tissue Valley Biomedical (blood); host or cells: human red blood cells
T1 sequence (P00352 1-501): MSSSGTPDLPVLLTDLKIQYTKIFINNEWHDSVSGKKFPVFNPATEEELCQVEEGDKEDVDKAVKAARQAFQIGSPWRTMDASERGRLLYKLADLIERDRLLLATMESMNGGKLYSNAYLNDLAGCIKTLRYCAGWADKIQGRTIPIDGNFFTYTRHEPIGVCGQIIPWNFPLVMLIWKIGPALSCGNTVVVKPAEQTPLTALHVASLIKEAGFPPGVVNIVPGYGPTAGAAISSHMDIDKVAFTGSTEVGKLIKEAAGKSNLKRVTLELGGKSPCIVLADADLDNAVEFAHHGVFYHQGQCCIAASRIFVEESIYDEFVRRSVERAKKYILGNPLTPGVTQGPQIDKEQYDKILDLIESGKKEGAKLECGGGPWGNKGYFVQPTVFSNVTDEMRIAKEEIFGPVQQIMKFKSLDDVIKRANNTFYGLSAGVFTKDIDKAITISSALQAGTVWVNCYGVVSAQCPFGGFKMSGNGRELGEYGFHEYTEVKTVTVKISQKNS
Kind of assay: hALDH1 HPLC-based activity assay (Example 1). Type of assay: biochemical. The method, then: ATP-affinity array chromatography. In whole mouse experiments, the animal (except for its tail, feet, skin and intestines) was frozen in liquid N2 and blended in buffer A containing 50 mM Hepes, pH 7.5, 50 mM NaCl, 10 mM MgCl2, 0.1% NONIDET- P40, 1 mM dithiothreitol, 1 μg/ml leupeptin, 100 μg/ml pefabloc and 10 μg/ml aprotinin. Mouse lysate was clarified by centrifugation for 1 hr at 100,000×g. For infected and non-infected RBC's˜1.5×10^9 cells were mixed with an equal volume of 2×buffer A, rocked for 30 min at 4° C., and clarified by centrifugation for 1 hr at 100,000×g. Supernatants were dialyzed overnight against 50 mM Hepes, pH 7.5, 50 mM NaCl, 10 mM MgCl2 and 1 mM dithiothreitol. […] Proteins were resolved by 12% SDS-PAGE and visualized by staining either with Coomassie brilliant Blue R-250 or silver nitrate. Alternatively, proteins were transferred to membrane GeneMate (Kaysville, Utah) in transfer buffer (25 mM Tris, 200 mM glycine, 20% methanol, and 0.01% SDS) for mixed peptide sequencing (Damer et al, J. Biol. Chem. 273:24396 (1998)). hALDH 1 and hQR2 purification and activity assays. Fresh human red blood cells (RBC) were obtained from Valley Biomedical, washed twice with PBS, and lysed in buffer B (0.1% Triton X, 50 mM Tris pH 7.5, 125 mM NaCl, 1 μg/mL aprotonin, 1 μg/mL pepstatin and 10 μg/mL PEFABLOC). […]
Values for hALDH1 were determined by HPLC assay. […]

Regarding `CCN(CC)CCCC(C)Nc1ccnc2cc(Cl)ccc12` (centres unmarked) [CQ, chloroquine], the ALDH activity (0.5 mM CQ, ALDH alone 48.42 ± 9.3 pmol) amounted to 26.62 ± 6.1 pmol. Also, for the setting “in the presence of physiological [NADH]”, the “inhibition of hALDH1 activity” value is “relatively weak inhibitor”.
